According to patent US11931341B2, “Compositions and methods for the treatment and prevention of muscular dystrophy” (University of Iowa Research Foundation, priority 2018, dated 2024):

Columns and labels:
Assay type in all cases: in vivo
δSgcd−/− mouse model [1] = assay: Autonomic function by radiotelemetry in δSgcd−/− mouse model of limb-girdle muscular dystrophy; settings: Sgcd−/− mice, C21 0.03 mg/kg/day SC osmotic minipump for eight weeks
Protocol: (§1) The effect of C21 was evaluated in a δSgcd−/− mouse model, which is a genetically modified model to imitate limb-girdle muscular dystrophy (LGMD). At 3 weeks of age, δSgcd−/− mice and control mice were administrated C21 (0.03 mg/kg/day, osmotic minipump, SC) or vehicle for eight weeks. Data from conscious mice were collected during the last week of treatment. At the end of the experiment, tissues were harvested for histopathology and molecular gene expression measurements.
(§2) A radiotelemetry probe (PC10-DSI) that enabled measurement of arterial blood pressure (BP), heart rate (HR) and locomotor activity was inserted into the thoracic aorta through the left common carotid artery under 2% isoflurane anesthesia when the mice were 9 weeks of age. When the mice reached 11-12 weeks of age, changes in BP, HR, and locomotor activity were measured over a minimum of 24 hours at a sampling rate of 500 Hz. In addition, BP was continuously recorded at a high sampling frequency of 2000 Hz for 1-2 hours, to collect data for assessment of spontaneous baroreflex sensitivity (sequence technique), sympathetic tone (HR changes with propranolol) and vagal tone (HR changes with methylatropine).

δSgcd−/− mouse model [2] = assay: Cardiac function by echocardiography in δSgcd−/− mouse model; settings: older-aged sgcd−/− mice, echocardiography (FIG. 3)
Protocol: as §1, with “At 3 weeks of age, δSgcd−/− mice and control mice were administrated C21 (0.03 mg/kg/day, osmotic minipump, SC) or vehicle for eight weeks.” left out
Echocardiography was performed in telemeter-implanted mice using Philips Sonos 5500 clinical imager in mice sedated with midazolam.

δSgcd−/− mouse model [3] = assay: Spontaneous locomotor activity by radiotelemetry in δSgcd−/− mouse model; settings: sgcd−/− mice, C21 0.03 mg/kg/day SC osmotic minipump for eight weeks (FIG. 2)
Protocol: as §1, §2

SMILES: CCCCOC(=O)NS(=O)(=O)c1sc(CC(C)C)cc1-c1ccc(Cn2ccnc2)cc1 [Compound C21, N-butyloxycarbonyl-3-(4-imidazol-1-ylmethylphenyl)-5-iso-butylthiophene-2-sulfonamide]
- baroreflex sensitivity (δSgcd−/− mouse model [1]; compared to sgcd−/− placebo treated mice (FIG. 1)): increase
- vagal tone (δSgcd−/− mouse model [1]; compared to sgcd−/− placebo treated mice, HR changes with methylatropine (FIG. 1)): increase
- sympathetic tone (δSgcd−/− mouse model [1]; compared to sgcd−/− placebo treated mice, HR changes with propranolol (FIG. 1)): decreased
- cardiac function measured as end diastolic volume, end systolic volume and ejection fraction (δSgcd−/− mouse model [2]): improved the cardiac function
- spontaneous locomotor activity (δSgcd−/− mouse model [3]): increased the spontaneous locomotor activity to levels comparative to control animals
